This experiment has as its system CYP19 mRNA expression in SK-BR-3 cells. The experiment in a line: CYP19 mRNA expression by real-time RT-PCR in SK-BR-3 cells. The format is cell-based, human. The settings on record: 5 μM, 24 h (FIG. 14). Here is the method:
RNA Extraction. Total RNA was isolated using the TRIzol reagent according to the manufacturer's protocol. Total RNA pellets were dissolved in DNase- and RNase-free water and quantitated using a spectrophotometer. The quality of RNA samples was determined by electrophoresis through agarose gels and staining with ethidium bromide; the 18S and 28S rRNA bands were visualized under ultraviolet light.
(§1) cDNA Synthesis. Isolated total RNA (2 μg) was treated with DNase I Amplification grade, according to the recommended protocol to eliminate any DNA before reverse transcription. Treated total RNA was denatured at 65° C. for 5 min in the presence of 2.5 ng/μL random hexamers and 0.5 mM dNTP mix. The samples were snap-cooled on ice and centrifuged briefly. Complementary DNA (cDNA) was synthesized using Superscript II reverse transcriptase according to the recommended protocol. Briefly, the reactions were conducted in the presence of 1× First-Strand Buffer and 20 mM DTT at 42° C. for 50 min and consequently inactivated at 70° C. for 15 min. The cDNA generated was used as a template in realtime PCR reactions.
Real-Time PCR. Real-time PCR was performed using the Opticon 2 system from MJ Research (Waltham, Mass.). For the CYP19 total gene the PCR reaction mixture consisted of Taqman Universal PCR Master Mix (Applied Biosystems), 600 nM of CYP19 primer (sense: 5′-TGTCTCTTTGTTCTTCATGCTATTTCTC-3′ (SEQ ID NO: 1); antisense: 5′-TCACCAATAACAGTCTGGATTTCC-3′) (SEQ ID NO: 2); 250 nM Taqman probe (6FAM 5′-TGCAAAGCACCCTAATGTTGAAGAGGCAAT-3′TAMRA) (SEQ ID NO: 3) (Invitrogen), 18S rRNA (Applied Biosystems, Foster City, Calif.), and 2.0 μL of each RT sample in a final volume of 20 μL. The Taqman probe was designed to anneal to a specific sequence of the aromatase gene between the forward and the reverse primers. Cycling conditions were 50° C. for 2 mm and 95° C. for 10 mm, followed by 50 cycles at 95° C. for 15 s and 60° C. for 1 mm.
RNA extraction. Total RNA was isolated using the TRIzol reagent according to the manufacturer's protocol. Total RNA pellets were dissolved in DNase, RNase-free water and quantitated using a spectrophotometer. The quality of RNA samples was determined by electrophoresis through agarose gels and staining with ethidium bromide; the 18S and 28S rRNA bands were visualized under ultraviolet light.
as §1, with “synthesis.” for “Synthesis.”, “real-time” for “realtime”
Real-time PCR. Real-time PCR was performed using the Opticon™ 2 system from MJ Research (Waltham, Mass.). For the CYP19 total gene the PCR reaction mixture consisted of Taqman® Universal PCR Master Mix (Applied Biosystems), 600 nM of CYP19 primer (sense: 5′-TGTCTCTTTGTTCTTCATGCTATTTCTC-3′ (SEQ ID NO: 1); antisense: 5′-TCACCAATAACAGTCTGGATTTCC-3′) (SEQ ID NO: 2); 250 nM Taqman probe (6FAM 5′-TGCAAAGCACCCTAATGTTGAAGAGGCAAT-3′TAMRA) (SEQ ID NO: 3) (Invitrogen), and 2.0 μL of each cDNA sample in a final volume of 20 μL. […]
On the technique in general: In qPCR the cycle at which signal appears reflects the starting amount.
`CN(c1ccc([N+](=O)[O-])cc1OCc1ccccc1-c1ccccc1)S(C)(=O)=O` [Compound 29c, N-methyl-N-[2-(2′-phenylbenzyloxy)-4-nitrophenyl]methanesulfonamide]: the CYP19 gene expression result is on record as “significantly decreased CYP19 gene expression”.

On to `CN(c1ccc([N+](=O)[O-])cc1OCc1ccc(F)cc1)S(C)(=O)=O` [Compound 33c, N-methyl-N-[2-(4′-fluorobenzyloxy)-4-nitrophenyl]methanesulfonamide], for which the CYP19 gene expression entry was “significantly decreased CYP19 gene expression”.

`CN(c1ccc([N+](=O)[O-])cc1OCc1ccccc1)S(C)(=O)=O` [Compound 26f, N-methyl-N-(2-benzyloxy-4-nitrophenyl) methanesulfonamide]: the CYP19 gene expression entry was “significantly decreased CYP19 gene expression”.

With `CN(c1ccc([N+](=O)[O-])cc1OCc1ccc2ccccc2c1)S(C)(=O)=O` [Compound 28c, N-methyl-N-[2-(β-naphthylmethoxy) 4-nitrophenyl]methanesulfonamide], the CYP19 gene expression entry is recorded as “significantly decreased CYP19 gene expression”.

As to `CN(c1ccc([N+](=O)[O-])cc1OCc1ccc([N+](=O)[O-])cc1)S(C)(=O)=O` [Compound 27c, N-methyl-N-[2-(4′-nitrobenzyloxy)-4-nitrophenyl]methanesulfonamide], the CYP19 gene expression result is “significantly decreased CYP19 gene expression”.

The values above are taken from patent US7741520B2, “Sulfonanilide analogs as selective aromatase modulators (SAMs)” (The Ohio State University Research Foundation, priority 2006, dated 2010).
